Laboratory results: ChEMBL document CHEMBL1201862, “PubChem BioAssay data set” (2004)
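Method: 48-hour compound exposure of cells in 96-well plates, five concentrations, linear interpolation of endpoints. At the GI50, growth is halved.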 The source made the active and inactive calls. Cut-off read from the data, not from the text of the source: active = GI50 up to about 1.1 µM and inactive = higher.

Legend:
Assay in all cases: NCI tumour cell line growth inhibition, 48 h
IGROV-1 = test system: IGROV-1
NCI-H23 = test system: NCI-H23
UO-31 = test system: UO-31
K562 = test system: K562
HCC 2998 = test system: HCC 2998
RPMI-8226 = test system: RPMI-8226
M14 = test system: M14
CAKI-1 = test system: CAKI-1
MCF7 = test system: MCF7
HOP-62 = test system: HOP-62
UACC-257 = test system: UACC-257
NCI-H522 = test system: NCI-H522
EKVX = test system: EKVX
ACHN = test system: ACHN
OVCAR-8 = test system: OVCAR-8
SK-MEL-5 = test system: SK-MEL-5
OVCAR-4 = test system: OVCAR-4
Malme-3M = test system: Malme-3M
HOP-92 = test system: HOP-92
OVCAR-5 = test system: OVCAR-5

Row | Structure (SMILES) | GI50 (IGROV-1) | GI50 (NCI-H23) | GI50 (UO-31) | GI50 (K562) | GI50 (HCC 2998) | GI50 (RPMI-8226) | GI50 (M14) | GI50 (CAKI-1) | GI50 (MCF7) | GI50 (HOP-62) | GI50 (UACC-257) | GI50 (NCI-H522) | GI50 (EKVX) | GI50 (ACHN) | GI50 (OVCAR-8) | GI50 (SK-MEL-5) | GI50 (OVCAR-4) | GI50 (Malme-3M) | GI50 (HOP-92) | GI50 (OVCAR-5)
1 | COC(=O)C(=O)C(C(=O)C(=O)Nc1ccccc1C(C)=O)c1nc2ccc(C(=O)c3ccccc3)cc2nc1O (stereo not given) | 20.2 µM (inactive) | 35.2 µM (inactive) | 26.7 µM (inactive) | 39.4 µM (inactive) | 78.3 µM (inactive) | 63.1 µM (inactive) | > 100 µM (inactive) | 25.9 µM (inactive) | 19.4 µM (inactive) | 45.2 µM (inactive) | > 100 µM (inactive) | 28.4 µM (inactive) | 92.5 µM (inactive) | 73.8 µM (inactive) | 39.6 µM (inactive) | 62.8 µM (inactive) | > 100 µM (inactive) | > 100 µM (inactive) | 75 µM (inactive) | > 100 µM (inactive)
2 | C=C[C@@]1(C)CC2(C=C(CO)C(O)O2)Oc2c1c(=O)oc1cccc(C)c21 (stereo not given in full) | 13.8 µM (inactive) | 7.45 µM (inactive) | 5.31 µM (inactive) | 2.23 µM (inactive) | 20.9 µM (inactive) | 0.822 µM (active) | 3.52 µM (inactive) | 4.61 µM (inactive) | 6.62 µM (inactive) | 17.5 µM (inactive) | 14.7 µM (inactive) | 2.33 µM (inactive) | 17.1 µM (inactive) | 7.78 µM (inactive) | 5.28 µM (inactive) | 12.7 µM (inactive) | 3.78 µM (inactive) | 4.85 µM (inactive) | 20.2 µM (inactive) | 17.6 µM (inactive)
3 | Cc1cc2nc(C#N)c(N3CCN(c4ccc([N+](=O)[O-])cc4)CC3)nc2cc1C | > 100 µM (inactive) | > 64.9 µM (inactive) | > 93.8 µM (inactive) | > 100 µM (inactive) | > 100 µM (inactive) | > 57.3 µM (inactive) | > 95.9 µM (inactive) | > 70 µM (inactive) | > 72.8 µM (inactive) | 40.6 µM (inactive) | > 100 µM (inactive) | > 54.1 µM (inactive) | > 100 µM (inactive) | > 71.3 µM (inactive) | > 56.2 µM (inactive) | > 100 µM (inactive) | 73.6 µM (inactive) | > 100 µM (inactive) | 50.4 µM (inactive) | > 100 µM (inactive)
4 | C#CC1(O)C(COP(=O)(O)OCC2OC(n3ccc(NCCCCCCCCCCCCCCCCCC)nc3=O)C(O)C2O)OC(n2ccc(N)nc2=O)C1O (stereo not given) | 0.218 µM (active) | 3.73 µM (inactive) | 0.0716 µM (active) | 0.278 µM (active) | 0.703 µM (active) | 0.142 µM (active) | 0.254 µM (active) | 0.161 µM (active) | 0.059 µM (active) | 4.04 µM (inactive) | 4.05 µM (inactive) | 0.032 µM (active) | 8.24 µM (inactive) | 0.175 µM (active) | 1.07 µM (active) | 1.23 µM (inactive) | 1.82 µM (inactive) | 0.745 µM (active) | 21.2 µM (inactive) | 5.36 µM (inactive)
5 | O=C1O/C(=C\c2ccc(O)cc2)C(c2ccc(O)c(Cl)c2)=C1Cl | 40.1 µM (inactive) | 33.7 µM (inactive) | 35.2 µM (inactive) | 57.1 µM (inactive) | 38.2 µM (inactive) | > 100 µM (inactive) | 35.7 µM (inactive) | 37.2 µM (inactive) | 16.6 µM (inactive) | 35.4 µM (inactive) | 49.5 µM (inactive) | 23 µM (inactive) | 88.5 µM (inactive) | 57.7 µM (inactive) | 49.5 µM (inactive) | 18.5 µM (inactive) | 69 µM (inactive) | 24.5 µM (inactive) | 26.5 µM (inactive) | > 100 µM (inactive)
6 | CCCc1nnc2sc(COc3ccc(OCc4nn5c(CCC)nnc5s4)c(Cl)c3)nn12 | 24.9 µM (inactive) | 20.2 µM (inactive) | 14.6 µM (inactive) | 32.1 µM (inactive) | 23.8 µM (inactive) | 19.5 µM (inactive) | 21.9 µM (inactive) | 19.1 µM (inactive) | 20.9 µM (inactive) | 47.8 µM (inactive) | 20.3 µM (inactive) | 21.1 µM (inactive) | 14.3 µM (inactive) | 20.9 µM (inactive) | 31 µM (inactive) | 7.35 µM (inactive) | 14.7 µM (inactive) | 22.1 µM (inactive) | 20.4 µM (inactive) | 50.4 µM (inactive)
